Assay results as given in the supplement of paper PMC10307832.

compound: CC(C)CCN1c2nc(Nc3cc(F)c(O)c(F)c3)ncc2N(C)C(=O)C1C [BI-D1870] + C[C@]1(O)C[C@@H](c2nc(-c3ccc4ccc(-c5ccccc5)nc4c3)c3c(N)nccn32)C1 [Linsitinib] (partner 1 µM); test: relative viability (nuclei count vs DMSO), 5 days (fraction); higher = more cells survive; settings: first compound 0.04 µM
Procedure, shortened: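 Medians of duplicate plates are given as relative viability. That measure is the nuclei count in treated wells divided by the count in vehicle wells. Counts were taken on 4× images of lung cancer cell lines in 1536-well plates, 5 days after pin-tool dosing the day after seeding with one drug alone or a fixed anchor-drug dose plus five library-drug doses (not always all listed) in √10 steps.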

Cell Line | relative viability
LU99A | 0.617
BEN | 0.956
HARA | 1.1
HCC-78 | 0.54
NCI-H322M | 1.05
LCLC-97TM1 | 0.238
NCI-H2009 | 1.29
A-427 | 1.14
NCI-H661 | 0.515
NCI-H1734 | 0.967
NCI-H460 | 0.974
NCI-H2347 | 1.07
SK-LU-1 | 1.33
201T | 1.05
NCI-H1915 | 1.1
HCC-827 | 0.992

Cell Line | relative viability
LXF-289 | 1.05
NCI-H23 | 0.911
NCI-H647 | 1.14
CAL-12T | 0.935
NCI-H1651 | 1.09
EPLC-272H | 1.22
NCI-H2228 | 0.78
NCI-H1792 | 0.622
NCI-H1355 | 0.842
NCI-H3122 | 1.06
NCI-H1437 | 1.06
NCI-H1755 | 0.982
NCI-H2023 | 0.72
HCC-15 | 0.89
PC-14 | 1.04
EKVX | 1.14

same assay, conditions: first compound 0.1265 µM

Cell Line | relative viability
LU99A | 0.435
BEN | 0.859
HARA | 0.897
HCC-78 | 0.547
NCI-H322M | 0.904
LCLC-97TM1 | 0.158
NCI-H2009 | 1.13
A-427 | 1.1
NCI-H661 | 0.485
NCI-H1734 | 0.816
NCI-H460 | 0.629
NCI-H2347 | 0.965
SK-LU-1 | 0.993
201T | 1.09
NCI-H1915 | 1.12
HCC-827 | 0.959

Cell Line | relative viability
LXF-289 | 0.91
NCI-H23 | 0.385
NCI-H647 | 1.2
CAL-12T | 0.559
NCI-H1651 | 0.907
EPLC-272H | 1.15
NCI-H2228 | 0.568
NCI-H1792 | 0.607
NCI-H1355 | 0.81
NCI-H3122 | 0.925
NCI-H1437 | 0.943
NCI-H1755 | 0.975
NCI-H2023 | 0.507
HCC-15 | 0.751
PC-14 | 0.919
EKVX | 0.933

same assay, conditions: first compound 0.4 µM

Cell Line | relative viability
LU99A | 0.519
BEN | 0.914
HARA | 1.03
HCC-78 | 0.492
NCI-H322M | 0.826
LCLC-97TM1 | 0.19
NCI-H2009 | 1.23
A-427 | 1.13
NCI-H661 | 0.489
NCI-H1734 | 0.875
NCI-H460 | 0.655
NCI-H2347 | 0.962
SK-LU-1 | 1.09
201T | 1.06
NCI-H1915 | 1.1
HCC-827 | 0.982

Cell Line | relative viability
LXF-289 | 0.943
NCI-H23 | 0.586
NCI-H647 | 1.26
CAL-12T | 0.749
NCI-H1651 | 0.962
EPLC-272H | 1.34
NCI-H2228 | 0.953
NCI-H1792 | 0.47
NCI-H1355 | 0.788
NCI-H3122 | 0.988
NCI-H1437 | 0.979
NCI-H1755 | 1.04
NCI-H2023 | 0.569
HCC-15 | 0.772
PC-14 | 0.908
EKVX | 1

same assay, conditions: first compound 1.265 µM

Cell Line | relative viability
LU99A | 0.48
BEN | 1.01
HARA | 1.09
HCC-78 | 0.533
NCI-H322M | 0.879
LCLC-97TM1 | 0.244
NCI-H2009 | 1.13
A-427 | 1.17
NCI-H661 | 0.535
NCI-H1734 | 0.935
NCI-H460 | 0.434
NCI-H2347 | 1.03
SK-LU-1 | 1.05
201T | 1.04
NCI-H1915 | 1.12
HCC-827 | 0.977

Cell Line | relative viability
LXF-289 | 0.947
NCI-H23 | 0.61
NCI-H647 | 1.22
CAL-12T | 0.79
NCI-H1651 | 0.922
EPLC-272H | 1.22
NCI-H2228 | 0.529
NCI-H1792 | 0.619
NCI-H1355 | 0.788
NCI-H3122 | 0.974
NCI-H1437 | 0.909
NCI-H1755 | 0.967
NCI-H2023 | 0.605
HCC-15 | 0.92
PC-14 | 0.91
EKVX | 1.05

same assay, conditions: first compound 4 µM

Cell Line | relative viability
LU99A | 0.496
BEN | 0.961
HARA | 0.873
HCC-78 | 0.406
NCI-H322M | 0.883
LCLC-97TM1 | 0.193
NCI-H2009 | 0.881
A-427 | 1.17
NCI-H661 | 0.593
NCI-H1734 | 0.788
NCI-H460 | 0.0477
NCI-H2347 | 0.899
SK-LU-1 | 0.597
201T | 1.07
NCI-H1915 | 1.05
HCC-827 | 0.895

Cell Line | relative viability
LXF-289 | 0.916
NCI-H23 | 0.685
NCI-H647 | 0.871
CAL-12T | 0.704
NCI-H1651 | 0.752
EPLC-272H | 1.14
NCI-H2228 | 0.388
NCI-H1792 | 0.387
NCI-H1355 | 0.75
NCI-H3122 | 1.02
NCI-H1437 | 0.691
NCI-H1755 | 0.941
NCI-H2023 | 0.543
HCC-15 | 0.713
PC-14 | 0.633
EKVX | 0.893
